From patent publication US5371284A, “Phenyl acetylenic acetals” (Schering Corporation, priority 1993, dated 1994)

Test system: LTC4-induced contractions of guinea pig lung parenchyma
Assay: Inhibition of LTC4-induced contractions of guinea pig lung parenchyma strips
Set-up: species or system guinea pig (male Hartley)
Details: test compound at 10)M (so in the source); 1×10^-8 M LTC4, compound added 5 min before challenge; footnote c = statistically significant (p = 0.05), Student's t test
Protocol: The anti-allergy method of this invention is shown by tests which measure a compound's inhibition of contractile responses of strips of lung parenchyma. Male Hartley guinea pigs (600-800 g body weight) were killed by a blow to the head and then exsanguinated. The lungs were inflated with 5 ml. of air through the trachea, the chest cavity opened, and the lungs perfused in situ through the pulmonary artery with Tyrode's solution. The lower lobe of each lung was excised and dissected into four strips (3×10 mm), each of which was suspended in a constant temperature (37° C.) organ bath containing 10 mL of Tyrode's solution and aerated with 95% O2 -5% CO2. Each lung strip was attached to a Harvard isometric muscle transducer and tension was recorded with a Harvard recording module. The initial tension was adjusted to 2 g and the tissues allowed to equilibrate until a steady baseline was reached. […] The peak contractile response to LTC4 was recorded and expressed as a percent of the maximum response (obtained with 1×10^-4 M histamine) of that lung strip. The effect of each test compound is expressed as percent inhibition of the contractile response calculated as follows: [formula]

## CCCc1c(OCC(O)COc2ccc3c(=O)cc(C(=O)O)oc3c2CCC)ccc(C(C)=O)c1O (stereo not shown) [FPL 55712]
  % Inhibition of LTC4-induced contractions of guinea pig lung parenchyma: 99%
